Article PMC8781390, “Inclusion Complexes of Rifampicin with Native and Derivatized Cyclodextrins: In Silico Modeling, Formulation, and Characterization” (Pharmaceuticals, 2021)
≈ marks a conversion by molar mass, not a printed value. Like-named read-outs stand apart in the source and are kept apart here.

What was measured:
[1] = tested on: Staphylococcus aureus (NCTC 10788); experiment: MIC by broth microdilution; type: cell-based; conditions: Staphylococcus aureus NCTC 10788, 37 °C
Method: (§1) The minimum inhibitory concentration (MIC) of pure RIF and RIF-CD complexes was determined against both Staphylococcus aureus (NCTC® 10788) and methicillin-resistant Staphylococcus aureus (MRSA) (ATCC® 33593™) using the broth microdilution method. Briefly, inclusion complexes of RIF-CD were separately dissolved in sterile distilled water and diluted with Mueller–Hinton broth (MHB) to obtain a series of culture media containing different RIF concentrations ranging from 50 to 0.78 µg/mL. Solutions and suspensions of pure RIF were prepared by adding the pure RIF in methanol and in sterile distilled water, respectively, and then diluted with MHB to achieve the same concentration as for the RIF-CD inclusion complexes. Culture media in the microplates were inoculated with 100 µL of each bacterial suspension to achieve a final bacterial concentration of 2.0 × 10^5 CFU/mL. Pure MHB inoculated with the different bacterial strains was included as a positive control. The inoculated culture media were then incubated at 37 °C for 24 h. The MIC was determined as the lowest concentration of pure RIF and RIF-CD inclusion complexes where no visible bacterial growth was detected.

[2] = tested on: Methicillin-resistant Staphylococcus aureus (MRSA) (ATCC 33593); experiment: MIC by broth microdilution; type: cell-based; conditions: 24 h, MRSA ATCC 33593, 37 °C
Method: as §1

[3] = design: method as in earlier work; conditions: in humans; cited from earlier work
[4] = In vitro release / dissolution study; type: physicochemical; conditions: all studied release media (pH 1.2, 6.8, 7.4), 37 °C
Method: In vitro release profiles for pure RIF and RIF-CD inclusion complexes were evaluated […]. Simulated gastric fluid (pH 1.2), simulated intestinal fluid (pH 6.8), and PBS (pH 7.4) were prepared as the release media in this study and used to mimic biological conditions in the human body. All samples were added into Eppendorf tubes containing 2 mL of the release media and were then placed in an incubator at 37 °C with shaking at 40 rpm. Sampling was carried out at 1, 2, 3, 4, 5, 6, 7, 8, and 24 h by taking 200 µL of each sample, transferring them to HPLC vials containing glass inserts, and replacing the sample with 200 µL of fresh release media. The samples were analyzed using a validated HPLC method.
The HPLC method for RIF quantification was adapted from our previous work. HPLC Agilent 1220 Series (Agilent Technologies, UK Ltd., Stockport, UK) was used to analyze all the samples. Isocratic separation was achieved using a Phenomenex® Luna C18 (ODS1) column (150 × 4.6 mm internal diameter, 5 µm packing) (Phenomenex, Cheshire, UK). The injection volume was 50 µL and the analysis was carried out at room temperature with a flow rate of 1 mL/min. […] RIF was detected by a UV at 334 nm. All chromatograms were analyzed using the Agilent ChemStation® Software B.02.01.

[5] = Saturation solubility of RIF in buffered solutions; type: physicochemical; conditions: buffered solution
Method: Solubility studies were performed to assess RIF solubility in a range of buffers (pH 4.0, pH 7.0, and pH 9.0). For this purpose, an excess amount of RIF was added to 3 mL of adjusted buffered solutions in a glass vial. Suspensions were stirred at 100 rpm in a shaker incubator (Jeio Tech ISF-7100, Medline Scientific, Chalgrove Oxon, UK) at 37 °C for 24 h. Samples were then filtered using 0.2 μm syringe filters (Minisart®, Sartorius Stedim Biotech, Goeltingen, Germany). All samples were diluted appropriately and analyzed using the validated HPLC method described in Section 2.10.
The HPLC method for RIF quantification was adapted from our previous work. HPLC Agilent 1220 Series (Agilent Technologies, UK Ltd., Stockport, UK) was used to analyze all the samples. Isocratic separation was achieved using a Phenomenex® Luna C18 (ODS1) column (150 × 4.6 mm internal diameter, 5 µm packing) (Phenomenex, Cheshire, UK). The injection volume was 50 µL and the analysis was carried out at room temperature with a flow rate of 1 mL/min. The mobile phase was a mixture of 25 mM sodium dihydrogen phosphate buffer (with 1% triethylamine and adjusted using phosphoric acid at pH 6.8) and methanol (ratio 30:70 v/v). RIF was detected by a UV at 334 nm. All chromatograms were analyzed using the Agilent ChemStation® Software B.02.01.

[6] = Phase solubility analysis of RIF with cyclodextrins (binding constant, complexation efficiency); type: physicochemical
Method: Phase solubility analysis was carried out similarly to the saturation solubility studies by using a range of concentrations of CDs in buffered solutions at different pH vales. […] Solubility of each drug was determined and plotted in a graph with the nominal concentration of cyclodextrin on the x-axis and the nominal concentration of RIF on the y-axis.
In order to determine the binding strength of CD and RIF, the binding constant (Ks) was calculated based on the phase diagram of solubility studies. […] (1) Ks=[RIF−CD]/[RIF]free·[CD]free CD+RIF↔KsCD−RIF where [RIF − CD], [RIF]free, and [CD]free are concentration of the RIF-CD complexes, free RIF, and free CD, respectively.
[RIF]free can be considered as RIF initial solubility (S0), therefore Equation (2) becomes:(2) Ks=[RIF−CD]/S0·[CD]free
The phase solubility diagram was constructed by plotting the RIF molar concentration on the y-axis and the CD molar concentration on the x-axis. […] (3) Ks=slope/S0·(1−slope)
The complexation efficiency (CE) was determined by using the slope of the phase solubility diagram according to Equation (4). (4) CE=[CD−RIF]/[CD]free=S0·Ks=slope/1−slope
Based on CE determination, the CD molar ratio was calculated using Equation (5). (5) Drug :CD molar ratio=1 : (CE+1)/CE

## CO[C@H]1/C=C/O[C@@]2(C)Oc3c(C)c(O)c4c(O)c(c(/C=N/N5CCN(C)CC5)c(O)c4c3C2=O)NC(=O)/C(C)=C\C=C\[C@H](C)[C@H](O)[C@@H](C)[C@@H](O)[C@@H](C)[C@H](OC(C)=O)[C@@H]1C [Pure RIF (solution), Rifampicin]
[1]; Staphylococcus aureus, NCTC10788, 24 h, n = 3, read-out: MIC
  MIC: 0.78 µg/mL (≈ 0.948 µM)
[2]; Staphylococcus aureus, n = 3, read-out: MIC
  MIC: 0.78 µg/mL (≈ 0.948 µM)

## CO[C@H]1/C=C/O[C@@]2(C)Oc3c(C)c(O)c4c(O)c(c(/C=N/N5CCN(C)CC5)c(O)c4c3C2=O)NC(=O)/C(C)=C\C=C\[C@H](C)[C@H](O)[C@@H](C)[C@@H](O)[C@@H](C)[C@H](OC(C)=O)[C@@H]1C [Pure RIF (suspension), Rifampicin]
[1]; 24 h, n = 3
  MIC: 1.56 µg/mL (≈ 1.9 µM)
[2]; n = 3
  MIC: 1.56 µg/mL (≈ 1.9 µM)

## CO[C@H]1/C=C/O[C@@]2(C)Oc3c(C)c(O)c4c(O)c(c(/C=N/N5CCN(C)CC5)c(O)c4c3C2=O)NC(=O)/C(C)=C\C=C\[C@H](C)[C@H](O)[C@@H](C)[C@@H](O)[C@@H](C)[C@H](OC(C)=O)[C@@H]1C [RIF, Rifampicin]
[3]
  oral bioavailability: approximately 68%
[4]
  RIF released in 2 h: less than 10%
[5]; aqueous buffer, thermodynamic from solid, buffer pH 7.0, 37 °C
  solubility at 24 h: 870 µg/mL (≈ 1060 µM)
[5]; buffer pH 4.0, 37 °C
  solubility at 24 h: 310 µg/mL (≈ 377 µM)
[5]; buffer pH 9.0, 37 °C
  solubility at 24 h: 1400 µg/mL (≈ 1700 µM)

## OC[C@H]1O[C@@H]2O[C@H]3[C@H](O)[C@@H](O)[C@@H](O[C@H]4[C@H](O)[C@@H](O)[C@@H](O[C@H]5[C@H](O)[C@@H](O)[C@@H](O[C@H]6[C@H](O)[C@@H](O)[C@@H](O[C@H]7[C@H](O)[C@@H](O)[C@@H](O[C@H]8[C@H](O)[C@@H](O)[C@@H](O[C@H]1[C@H](O)[C@H]2O)O[C@@H]8CO)O[C@@H]7CO)O[C@@H]6CO)O[C@@H]5CO)O[C@@H]4CO)O[C@@H]3CO [βCD]
[6]; pH 4.0
  CE (complexation efficiency): 0.09
[6]; pH 4.0, RIF-CD 1:1 complex
  Ks (binding constant): 215 M⁻¹
[6]; pH 7.0
  CE (complexation efficiency): 0.29
[6]; pH 7.0, RIF-CD 1:1 complex
  Ks (binding constant): 250 M⁻¹

## OC[C@H]1O[C@@H]2O[C@H]3[C@H](O)[C@@H](O)[C@@H](O[C@H]4[C@H](O)[C@@H](O)[C@@H](O[C@H]5[C@H](O)[C@@H](O)[C@@H](O[C@H]6[C@H](O)[C@@H](O)[C@@H](O[C@H]7[C@H](O)[C@@H](O)[C@@H](O[C@H]8[C@H](O)[C@@H](O)[C@@H](O[C@H]9[C@H](O)[C@@H](O)[C@@H](O[C@H]1[C@H](O)[C@H]2O)O[C@@H]9CO)O[C@@H]8CO)O[C@@H]7CO)O[C@@H]6CO)O[C@@H]5CO)O[C@@H]4CO)O[C@@H]3CO [γCD]
[6]; pH 4.0
  CE (complexation efficiency): 0.80
[6]; pH 7.0
  CE (complexation efficiency): 1.22
[6]; pH 7.0, RIF-CD 1:1 complex
  Ks (binding constant): 1284 M⁻¹

## hydroxypropyl-βCD [HP-βCD]
[6]; pH 4.0
  CE (complexation efficiency): 0.20
[6]; pH 4.0, RIF-CD 1:1 complex
  Ks (binding constant): 541 M⁻¹
[6]; pH 7.0
  CE (complexation efficiency): 0.92
[6]; pH 7.0, RIF-CD 1:1 complex
  Ks (binding constant): 848 M⁻¹
[6]; pH 9.0
  CE (complexation efficiency): 1.12
[6]; pH 9.0, RIF-CD 1:1 complex
  Ks (binding constant): 649 M⁻¹
